From patent US20170240556A1, “BIFLUORODIOXALANE-AMINO-BENZIMIDAZOLE KINASE INHIBITORS FOR THE TREATMENT OF CANCER, AUTOIMMUNEINFLAMMATION AND CNS DISORDERS” (4SC DISCOVERY GMBH, priority 2012, published 2017) come the findings set out here.

Some results are limits rather than exact numbers.

Assay [1] concerns Wnt/β-catenin signaling pathway. Briefly: Wnt reporter assay (CellSensor LEF/TCF-bla FreeStyle 293F cells). In kind it is cell-based. To be noted: Homo sapiens; LEF/TCF-bla 293F cells, LiCl and mWnt3a stimulation. How it is done: The Wnt reporter assay was performed in stably transfected human HEK293 cells. Wnt signaling was induced by administration of Wnt3a protein and read out by β-Lactamase mediated cleavage of CCF4-AM and subsequent fluorescent detection.
CellSensor LEF/TCF-bla FreeStyle 293F cells (invitrogen #K1677) contain a beta-lactamase reporter gene under control of the β-catenin/LEF/TCF binding elements stably integrated into FreeStyle 293F cells. This cell line can be used to detect antagonists of the Wnt/β-catenin signaling pathway when stimulated by mouse Wnt3a or LiCl. The detection of beta-lactamase is possible with LiveBLAzer FRET—B/G Loading Kit (invitrogen #K1095) with CCF4-AM as subtrate.
Culture Medium: DMEM Medium +10% dialyzed FBS (PAN 2102-P290310), +1% NEAA (PAA M11-003), +1% P/S (Penicillin/Streptomycin, PAA P11-010) +25 mM HEPES (PAA S11-001), +5 μg/ml Blasticidin (PAA P05-017).
Cells (CellSensor LEF/TCF-bla FreeStyle 293F, invitrogen K1677) were split with Culture Medium to reach a confluence at the beginning of the assay of 80-90%.
At start of the assay, cells were harvested from culture and resuspend in assay medium at density of 0,66*10̂6 cells/ml. Subsequently, 60μ1 cell suspension were pipetted in each well of a Poly-D-Lysine 96 well Plate (BD #354640, vertical rows are marked 1 through 12, horizontal lanes are marked A through H),
Plates were subsequently incubated at 37° C. for at least 2 h.
To stimulate with Wnt3a, overnight prestimulation of Wnt signalling pathway with LiCl is necessary. Subsequently, an 8M aqueous LiCl solution was diluted 1:200 in assay medium, and 30 μl of said diluted LiCl solution was plated into the appropriate wells (see below pipetting scheme). Plates were then incubated at 37° C. over night.
Subsequently, compounds and controls were prepared as follows: mWnt3a (R&D 1324-WN, dissolved in PBS+0.1% BSA to 40 μg/ml) was diluted 1:100 in assay medium (=400 ng/ml). Compounds (Cpd) were diluted to a concentration of 10 mM in DMSO to prepare dilution series in assay medium (final concentrations 30 μM, 10 μM, 3 μM, 1 μM, 0.3 μM, 0.1 μM, 0.03 μM and 0.01 μM), which were pipetted into the appropriate wells (see below pipetting scheme). For each dilution of each compound, 3 replicates were tested. Final DMSO concentration was 0.3%.
LiCl and mWnt3a stimulated cells were used as High control (HC), unstimulated cells were used as low control, a blank was prepared from cell free medium plus mWnt3a, and a functional control was prepared with a known Wnt inhibitor (e.g. PKF118-310), final concentrations were as above.
Subsequently, the well was incubated for 5 h at 37° C.
At t=23 hours, FRET reagent mix (Loading Kit with CCF4-AM, Life Technologies #K1096) was prepared; per plate: 138 μl Solution B, 13.8 μl FRET-reagent, and 2300 μl Solution C. 24 μl FRET reagent mix were plated to each well, subsequently plates were incubated for at least 2 h in the dark (it is possible to incubate over night). Subsequently, plates were measured in the BMG FluorStar® plate reader at an emission waveltengths of 460 and 520 nm and with an excitation wavelength of 405 nm.
To determine potential cytotoxicity of the compounds, plates were centrifuge and the supernatant was discarded by dumping the plates. Subsequently, 100 μl Opti-MEM and 50 μl ViaLight (Lonza #LT07-321) Lysis Buffer were added to each well, followed by incubation for 10 min at room temperature (25° C.). Subsequently, 100 μl ViaLight reagent were added to each well, followed by incubation for 2 min at room temperature (25° C.) in the dark. Optionally, 200 μl of the obtained suspension were transferred to a white 96 well plate. The luminescence was measured with a Tecan Ultra plate reader.
(A reporter such as luciferase makes a cellular process visible.)

The target of assay [2] is Casein kinase 1 epsilon (CSKN1E) (Homo sapiens, UniProt P49674). Briefly: Casein kinase assay, CK1 epsilon. It is filed as biochemical. To be noted: recombinant CSKN1E 30 nM, ATP 10 μM.
The target of assay [3] is Casein kinase 1 delta (CSKN1D) (Homo sapiens, UniProt P48730). The assay is described as follows: Casein kinase assay, CK1 delta. It is filed as biochemical. The note with it: recombinant CSKN1D 5 nM, ATP 10 μM.
In assay [4] the test system is Hedgehog signaling pathway. The assay is described as follows: Hedgehog reporter assay (Gli Reporter - NIH3T3 Cell Line). In kind it is cell-based. To be noted: Mus musculus; Gli reporter NIH3T3 cells, murine SHH stimulation, 24 h; read-out: HH Assay. As for the experimental part:
In order to investigate the potency of test compounds to inhibit the Hedgehog signaling pathway, a Gli-Reporter assay was performed.
The “Gli Reporter—NIH3T3 Cell Line” contains the firefly luciferase gene under the control of Gli responsive elements stably integrated into murine NIH3T3 cells (cells purchased from Amsbio). The luciferase expression correlates with activation of the hedgehog signaling pathway. This cell line is validated for its response to stimulation with murine Sonic Hedgehog and to treatment with inhibitors of the hedgehog signaling pathway. A multiplexed viability assay was used to discriminate inhibition on the pathway activity from cell toxicity.
Growth Medium: DMEM, 10% Calf Serum, 1% Penicillin/Streptomycin 500 μg/ml Geneticin (G418 Stock 50 mg/ml).
25.000 cells per well were seeded into a white 96 well plate in 100 μl growth medium and incubated over night at 37° C. and 5% CO2. After removing the supernatant the test compounds and controls (known GLI inhibitor, e.g. GANT-61) were added in different concentrations in a final volume of 45 μl and incubated for 1 h at 37° C. and 5% CO2. For the stimulation of the Hedgehog pathway 5 μl of 10 μg/ml concentrated murine sonic hedgehog (SHH) was added to the cells. A final concentration of 1 μg/ml mSHH and 0.1% DMSO was reached per well. After incubation for 24 h at 37° C. the cells were investigated for viability and reporter activity.
Viability: For the determination of the viability of the treated cells the CellTiter-Fluor Kit from Promega was used. Essentially, only proteases of viable cells are able to cleave the cell-permeant substrate Gly-Phe-AFCoumarin (GF-AFC). By this cleavage the fluorescent AFC is set free and can be detected in a fluorescence reader. For this assay 10 μl of GF-AFC substrate (CellTiter-Fluor, Promega #G6082) was diluted in 2 ml assay buffer from the CellTiter-Fluor Kit and 10 μl of this dilution was added per well to the cells and incubated for 30 min at 37° C. The fluorescence was measured with excitation at 380-400 nm and emission at 505 nm.
Reporter activity: The firefly luciferase reporter activity was detected with the ONE-Glo™ Luciferase Assay System from Promega. For this assay 50 μl ONE-Glo luciferase reagent (Promega #E6120, contains cell lysis buffer and luciferin) was added to each well and incubated at room temperature for 5 min. Luminescence was detected in a plate reader and served as a degree for reporter activity.

Sequence of Casein kinase 1 delta (CSKN1D) (P48730 whole entry): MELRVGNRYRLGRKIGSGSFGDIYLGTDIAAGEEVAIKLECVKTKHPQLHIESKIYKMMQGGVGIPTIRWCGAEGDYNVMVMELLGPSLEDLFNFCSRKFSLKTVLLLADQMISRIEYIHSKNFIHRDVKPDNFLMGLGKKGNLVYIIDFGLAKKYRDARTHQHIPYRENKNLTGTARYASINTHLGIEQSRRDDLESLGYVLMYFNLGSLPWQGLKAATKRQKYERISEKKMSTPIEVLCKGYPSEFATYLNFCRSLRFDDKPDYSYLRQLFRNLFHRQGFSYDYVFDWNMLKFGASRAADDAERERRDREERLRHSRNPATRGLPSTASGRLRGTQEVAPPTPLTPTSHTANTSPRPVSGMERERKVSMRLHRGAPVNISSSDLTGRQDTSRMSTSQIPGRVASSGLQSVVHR
Sequence of Casein kinase 1 epsilon (CSKN1E) (P49674 whole entry): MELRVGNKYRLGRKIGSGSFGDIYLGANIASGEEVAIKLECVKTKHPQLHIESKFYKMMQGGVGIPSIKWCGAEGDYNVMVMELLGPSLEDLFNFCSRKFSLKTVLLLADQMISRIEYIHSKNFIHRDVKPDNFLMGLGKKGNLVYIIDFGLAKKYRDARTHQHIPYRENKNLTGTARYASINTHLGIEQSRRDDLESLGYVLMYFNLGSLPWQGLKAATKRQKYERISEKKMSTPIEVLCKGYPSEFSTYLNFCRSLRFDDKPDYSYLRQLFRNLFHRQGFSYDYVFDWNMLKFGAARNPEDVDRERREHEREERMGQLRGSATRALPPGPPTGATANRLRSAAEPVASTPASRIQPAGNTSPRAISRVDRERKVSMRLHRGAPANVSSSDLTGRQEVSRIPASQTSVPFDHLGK

In the case of `COc1cc(OC)cc(C(=O)Nc2nc3cc4c(cc3[nH]2)OC(F)(F)O4)c1` [Compound 1B, N-(2,2-difluoro-5H-[1,3]dioxolo[4′,5′:4,5]benzo[1,2-d]imidazol-6-yl)-3,5-dimethoxybenzamide], the IC50 in assay [1] is less than 5000 nM; in assay [2], less than 200 nM; in assay [3] it was less than 200 nM.
Take `O=C(Nc1nc2cc3c(cc2[nH]1)OC(F)(F)O3)c1cccc(-c2nccs2)c1` [Compound 2B, N-(2,2-difluoro-5H-[1,3]dioxolo[4′,5′:4,5]benzo[1,2-d]imidazol-6-yl)-3-(thiazol-2-yl)benzamide]: the figures for the IC50 in assay [1] and in assay [3] were less than 5000 nM and less than 200 nM, respectively.
In the case of `COc1cc(C(=O)Nc2nc3cc4c(cc3[nH]2)OC(F)(F)O4)ccc1N` [Compound 9B, 4-amino-N-(2,2-difluoro-5H-[1,3]dioxolo[4′,5′:4,5]benzo[1,2-d]imidazol-6-yl)-3-methoxybenzamide], the IC50 in assay [1] was less than 5000 nM; in assay [4], not above 500 nM; in assay [3], less than 200 nM.
With `Cc1cc(C)n(-c2cccc(C(=O)Nc3nc4cc5c(cc4[nH]3)OC(F)(F)O5)c2)n1` [Compound 130, N-(2,2-difluoro-5H-[1,3]dioxolo[4′,5′:4,5]benzo[1,2-d]imidazol-6-yl)-3-(3,5-dimethyl-1H-pyrazol-1-yl)benzamide], the IC50 in assay [2] was less than 200 nM; in assay [4], not above 500 nM; in assay [3], less than 200 nM.
On to `Cc1nc(-c2cccc(C(=O)Nc3nc4cc5c(cc4[nH]3)OC(F)(F)O5)c2)no1` [Compound 137, N-(2,2-difluoro-5H-[1,3]dioxolo[4′,5′:4,5]benzo[1,2-d]imidazol-6-yl)-3-(5-methyl-1,2,4-oxadiazol-3-yl)benzamide], for which the IC50 is less than 5000 nM in assay [1], less than 200 nM in assay [2], 500 to 1000 nM in assay [4] and less than 200 nM in assay [3].
Regarding `O=C(Nc1nc2cc3c(cc2[nH]1)OC(F)(F)O3)c1cc(-c2cccs2)on1` [Compound 138, N-(2,2-difluoro-5H-[1,3]dioxolo[4′,5′:4,5]benzo[1,2-d]imidazol-6-yl)-5-(thiophen-2-yl)isoxazole-3-carboxamide], the IC50 is less than 200 nM in assay [2], 500 to 1000 nM in assay [4] and less than 200 nM in assay [3].
On to `O=C(Nc1nc2cc3c(cc2[nH]1)OC(F)(F)O3)c1cccc(-c2ncc[nH]2)c1` [Compound 140, N-(2,2-difluoro-5H-[1,3]dioxolo[4′,5′:4,5]benzo[1,2-d]imidazol-6-yl)-3-(1H-imidazol-2-yl)benzamide], for which the IC50 in assay [1] is less than 5000 nM; in assay [2], less than 200 nM; in assay [4], 500 to 1000 nM; in assay [3], less than 200 nM.
Consider `O=C(Nc1nc2cc3c(cc2[nH]1)OC(F)(F)O3)c1cccc(-c2noc(C3CC3)n2)c1` [Compound 147, 3-(5-cyclopropyl-1,2,4-oxadiazol-3-yl)-N-(2,2-difluoro-5H-[1,3]dioxolo[4′,5′:4,5]benzo[1,2-d]imidazol-6-yl)-benzamide], for which the IC50 in assay [2] was less than 200 nM; in assay [4], 500 to 1000 nM; in assay [3] it was less than 200 nM.
For `Cc1nnnn1-c1cccc(C(=O)Nc2nc3cc4c(cc3[nH]2)OC(F)(F)O4)c1` [Compound 148, N-(2,2-difluoro-5H-[1,3]dioxolo[4′,5′:4,5]benzo[1,2-d]imidazol-6-yl)-3-(5-methyl-1H-tetrazol-1-yl)benzamide], the IC50 in assay [1] is less than 5000 nM; in assay [2] it was less than 200 nM; in assay [3], less than 200 nM.
For the compound `O=C(Nc1nc2cc3c(cc2[nH]1)OC(F)(F)O3)c1cccc(-n2cnnn2)c1` [Compound 149, N-(2,2-difluoro-5H-[1,3]dioxolo[4′,5′:4,5]benzo[1,2-d]imidazol-6-yl)-3-(1H-tetrazol-1-yl)benzamide], the IC50 is 5000 to 20000 nM in assay [1], less than 200 nM in assay [2], 1000 to 15000 nM in assay [4] and less than 200 nM in assay [3].
